The results in this text go back to patent US20070148765A1, “Preservative-containing virus formulations” (priority 2003, published 2007).

Data set [1] is described as follows: Solubility of preservative in A195 buffer. In kind it is physicochemical.
In data set [2] the test system is S. aureus, P. aeruginosa, E. coli, C. albicans, A. niger. Put plainly: Antimicrobial effectiveness (AME) testing, overall result. The conditions noted are these: formulated in A195 buffer.
The subject of the next data set is adenovirus. Put plainly: QPA assay for adenovirus infectivity (stability of adenovirus in formulation). The conditions noted are these: for Ad5 stability in the presence of preservative: in A195 buffer with the preservative, short-term accelerated stability, infectivity assays. In kind it is cell-based, adenovirus serotype 5 (Ad5). The method, then:
QPA Assay for Adenovirus Infectivity—The compatibility of preservatives with adenovirus was assessed by measuring the infectivity adenovirus using QPA assay. The QPA assay is based on the finding that the quantity of replicating adenoviral genomes, upon infection of 293 cells, is proportional to the input quantity of infectious adenovirus 24 hours post-infection (P.I.). The accumulated adenoviral genomes are purified using Qiagen 96-well Blood DNA Extraction Kit 24 hrs P.I. and quantitated using Perkin-Elmer TaqMan PCR technology. A standard curve is constructed by using the TaqMan PCR cycle threshold (CT) reflecting the quantity of accumulated adenoviral genomes due to infection and subsequent replication as a function of the input viral infectivity of standard curve material that is determined by independent TCID50 potency assay. The infectivity of samples is interpolated from the standard curve. Infectivity can be determined within 48-72 hours using this procedure. To determine the loss of adenovirus infectivity in stability samples the infectivity of the stability sample and the corresponding −70° C. control of the same formulation are determined during the same QPA run and on the same PCR plate. The loss of infectivity in the stability samples is expressed as log loss of infectivity compared to the −70° C. control.
Results—Adenovirus was formulated in A195 buffer containing preservatives (i.e., the A500 series of Table 3). The infectivity of adenovirus was measured using a Q-PCR based Potency Assay (QPA) after storage at certain temperatures (2-8, 15, 20, 25, 30, and 37° C.) and compared to the control (corresponding sample stored at −70° C.). The stability of adenovirus was quantitatively presented as “Log Loss of Adenovirus Infectivity”. Variability of the QPA assay is reported to be +/−0.15 logs.

Entries after “also recorded” stand apart in the source; their conditions may differ.

On to `Cc1cccc(O)c1` [m-cresol], for which, in data set [1], the “solubility in A195 buffer” value is “poor solubility”. Moreover, the “AME testing, overall result in words” value in data set [2] was “effective antimicrobial preservatives”.

Take `Oc1ccccc1` [phenol]: the “AME testing, overall result in words” value in data set [2] is “effective antimicrobial preservatives”. Moreover, the “Ad5 stability in the presence of preservative” value (shortened to “Ad5 stability in the presence”) with adenovirus was “very unstable”.

Consider `CC(C)(C)CC(C)(C)c1ccc(OCCOCC[N+](C)(C)Cc2ccccc2)cc1` [benzethonium chloride], for which, in data set [2], the “AME testing, overall result in words” value is “effective antimicrobial preservatives”.

In the case of `OCc1ccccc1` [benzyl alcohol], the “AME testing, overall result in words” value in data set [2] is given as “effective antimicrobial preservatives”. Further, the “Ad5 stability in the presence” value in the data set with adenovirus is listed as “very poor stability”.

In the case of `O=C(O)c1ccccc1` [benzoic acid], the “AME testing, overall result in words” value in data set [2] is listed as “failed AME testing”. Moreover, in the data set with adenovirus (0.5% (w/v) chlorobutanol or 0.2% (w/v) benzoic acid in A195 pH 6.8, MRKAd5pol 10^10 VP/ml, 37° C. 1-4 weeks vs −70° C.), the “effects on the stability of adenovirus (log loss of infectivity, FIG. 1)” value is reported as “no significant effects”. The “Ad5 stability in the presence” value in the data set on adenovirus is given as “compatible with adenovirus; also recorded: compatible with Ad5”.
